Laboratory results published in patent publication US20050064382A1, “Method of prevention of lysosomal leakage in eukaryotic cells by using 6-methyluracil based water-soluble compounds and method of producing thereof” (priority 2002, published 2005).

Tests used:
[1] = test system: MEL cells; assay: Mild damage: cells damaged by one freeze/thaw cycle; assay type: cell-based, mouse; conditions: 24 hours
Protocol: Mild Damage: Influence of Glucural on cells damaged by one-freeze/thaw cycle. Cells were treated exactly as above except that they were subjected to one freeze/thaw cycle (in the absence of cryo-protector) prior to incubation at 37° C. for 24 hours.

[2] = test system: THP-1 cells; assay: Long-term growth of THP-1 cells without change of medium (starvation); assay type: cell-based, human
[3] = test system: THP-1 cells; assay: DMSO shock of THP-1 cells, percentage of dead cells; assay type: cell-based, human
Protocol: Cells were incubated in the presence of 10% DMSO at 37° C. for 90 minutes (tryptan-blue test).

[4] = test system: Human umbilical cord vein endothelial cells (HUCVEC); assay: HUCVEC Assay 1: enzymatic and mechanical damage; assay type: cell-based; conditions: after 7 days, without change of medium
Protocol: Glucural was also tested on two primer cell cultures for protection against cell death in sub-optimal conditions.
Human umbilical cord vein endothelial cells (HUCVEC) were isolated from freshly obtained human umbilical cords in accordance with known methods. HUCVEC were grown in multi-well plates. After saturation of the wells, the assays were initiated. Four wells were used for each experimental group. To cause “mechanical” damage, a higher (2-2½ times) centrifugal speed was used to pick up cells after trypsin treatment. To cause enzymatic damage, full-strength trypsin solution was used instead of the recommended diluted concentration. All assays were started from the last change of medium in wells with saturated cell culture (well bottoms were covered completely by cells). Results were estimated from the percentage of the bottom covered by cells on the last day of the assay.
Assay 1. Enzymatic and mechanical damage to cells: Growth after 7 days, without change of medium.

[5] = test system: Saccaramices Cerevisiae; assay: Viability of lyophilized yeast; assay type: cell-based; conditions: added prior to lyophilization
Protocol: The lyophilization of yeast is a very common technique used in different fields of industry, biotechnology and research. The viability of lyophilized yeast species and strains can vary greatly. The viability of commercial baking yeast after lyophilization is high (50-80%). But other strains of yeast used in industry and research, can have viability as low as […]. […] Glucural was tested using the strain of yeast called Saccaramices Cerevisiae, a strain with a very low level of viability after lyophilization. By increasing the viability of lyophilized yeast inoculums, the amount of yeast required to make such inoculums may be lowered.
The standard method of lyophilization was used. […] The suspensions were aliquoted and lyophilized at standard conditions.
To assay the vitality of lyophilized yeast, two approaches were used:
The lyophilized yeast from an ampoule was re-suspended in 1 ml of regular growing medium and diluted by 10, 100, and 1,000 times. The suspensions of yeast were plated on the regular YPD agarose medium by 20 mkl per plate. After growing the colonies for 48 hours at 28° C., the number of colonies was counted.
This test included growing lyophilized yeast in 10 ml of growth medium for 24 hours, before plating on the agarose plates as described above.
The viability of the yeast strain tested increased by a factor of between 50 to 100 compared to the control group.

[6] = test system: skeletal (rear leg) muscle homogenates; assay: Proteolytic index of muscle homogenates (autoproteolysis, Ninhidrin); assay type: biochemical, rat
Protocol: In-vitro tests were performed on the skeletal (rear leg) muscles of 17 white laboratory rats. Preliminary research efforts determined 1) the preparation method for muscle homogenates, 2) estimation of level of the proteolytic activity by measuring for the concentration of free amino acids, a result of protein cleavage, and 3) the optimal time of authoproteolysis.
The preparation of muscle homogenates. Efforts were made to disassemble the muscle tissue gently, without disruption of the lysosomes, though with sufficient strength to ensure a homogeneous suspension of muscle cells in physiological solution (PBS). Potter's homogenator was used with a glass barrel and a Teflon pestle. Determination of the optimal treatment was based on experimental data and the activity of the proteases during the incubation of the homogenates at 37° C. If lysosomes were damaged during preparation of the homogenates, then there was no increase in concentration of free amino acids during incubation. Undamaged lysosomes in the homogenate would continue their proteolytic activity during incubation. For the best preparation of the homogenate, the muscles were separated from the connecting tissue, weighed and cut up with scissors in a Petri dish for 10 minutes. […]
After the incubation of samples, the protein concentration was estimated by the standard Bio-Rad method. To estimate proteolytic activity based on the concentration of free amino acids found in the sample, three methods were tried: 1) absorbance at 280 nm, 2) concentration of amino acid tyrosine by estimation with Folin reagent, and 3) concentration of end amino groups with Ninhidrin reagent. Only method 3 provided accurate results, so the proteolytic index was measured based on the Ninhidrin reagent. […] Samples were boiled in a water bath for 10 minutes, chilled and the absorbance at 560 nm was measured. […] Concentrations of free amino acids and protein in mg/ml could therefore be determined for both cases. The ratio of free amino acids per proteins in the sample was calculated as the proteolytic index. […]

complex of 2,4-dihydroxy-6-methylpyrimidine with N-methyl-D-glucamine [Glucural]
number of cells per ml, Mild damage ([1]; Glucural 25 mkg/ml): 36 x 10^4
number of cells per ml, Mild damage ([1]; Glucural 50 mkg/ml): 53 ± 5 x 10^4
number of cells per ml, Mild damage ([1]; Glucural 100 mkg/ml): 40 ± 1 x 10^4
number of cells per ml, Mild damage ([1]; Glucural 200 mkg/ml): 45 ± 0 x 10^4
number of cells per ml, Mild damage ([1]; Glucural 400 mkg/ml): 31 ± 1 x 10^4
percentage of dead cells (trypan blue test) ([2]; Glucural 10 mkg/ml, 3 days of growing): 2.1 ± 0.5%
percentage of dead cells (trypan blue test) ([2]; Glucural 10 mkg/ml, 4 days of growing): 7.2 ± 1.3%
percentage of dead cells (trypan blue test) ([2]; Glucural 10 mkg/ml, 10 days of growing): 10.7 ± 0.2%
percentage of dead cells (trypan blue test) ([2]; Glucural 10 mkg/ml, 14 days of growing): 15.3 ± 0.2%
percentage of dead cells (trypan blue test) ([2]; Glucural 20 mkg/ml, 3 days of growing): 5.5 ± 0.25%
percentage of dead cells (trypan blue test) ([2]; Glucural 20 mkg/ml, 4 days of growing): 0%
percentage of dead cells (trypan blue test) ([2]; Glucural 20 mkg/ml, 10 days of growing): 10.85 ± 0.35%
percentage of dead cells (trypan blue test) ([2]; Glucural 20 mkg/ml, 14 days of growing): 15.3 ± 0.5%
percentage of dead THP-1 cells ([3]; Control + Glucural 25 mkg/ml, assay 1): 3.9 ± 0.7%
percentage of dead THP-1 cells ([3]; Control + Glucural 25 mkg/ml, assay 2): 5.8 ± 3.1%
percentage of dead THP-1 cells ([3]; Control + Glucural 25 mkg/ml, assay 4): 3.0 ± 1.0%
percentage of dead THP-1 cells ([3]; DMSO shock (10% DMSO, 37° C., 90 minutes) + Glucural 25 mkg/ml, assay 1): 4.1 ± 1.6%
percentage of dead THP-1 cells ([3]; DMSO shock (10% DMSO, 37° C., 90 minutes) + Glucural 25 mkg/ml, assay 2): 7.7 ± 3.4%
percentage of dead THP-1 cells ([3]; DMSO shock (10% DMSO, 37° C., 90 minutes) + Glucural 25 mkg/ml, assay 3): 4.6 ± 2.2%
percentage of dead THP-1 cells ([3]; DMSO shock (10% DMSO, 37° C., 90 minutes) + Glucural 25 mkg/ml, assay 4): 5.0 ± 2.3%
Percent of well-bottom covered by cells ([4]; Glucural 40 mkg/ml): 2-5%
Percent of well-bottom covered by cells ([4]; Glucural 400 mkg/ml): 70-80%
optimal dose to protect yeast cells [5]: 25 mkg/ml
decrease of proteolytic activity in muscles ([6]; Glucural 50 mkg/ml (Group 4)): 36%
decrease of proteolytic activity in muscles ([6]; Glucural 100 mkg/ml (Group 5)): 51%
reduction of autoproteolysis ([6]; Glucural less than 50 mkg/ml): not sufficient to reduce autoproteolysis
